Measurements taken from patent US20250186408A1, “TREATMENT OF PHARMACORESISTANT EPILEPSY” (Katholieke Universiteit Leuven, priority 2021, published 2025).
“Also recorded” adds a separate entry of the source.

How the values were obtained:
[1] = tested on: EKP-induced seizure behaviour in zebrafish larvae; test: Zebrafish ethyl ketopentanoate (EKP) seizure model, behavioural analysis; type: in vivo, zebrafish (Danio rerio); settings: for activity against EKP-induced drug-resistant seizures (behavioural) / reduction in EKP-induced drug-resistant seizures (non-significant): maximum tolerated concentration, 7-day-old larvae (FIG. 3); for activity against EKP-induced drug-resistant seizures (behavioural) / reduction in EKP-induced drug-resistant seizures (non-significant) / reduction in EKP-induced seizure behaviour (non-significant): 2 h incubation; for active in the behavioural assay / tolerated in the behavioural assay: 5 dpf larvae, 2 h; for antiseizure activity at the behavioural level (in words): FIG. 5 and FIG. 3; for reduction in EKP-induced seizure behaviour (non-significant): 5-day-old larvae
Method: Experiments were performed as described in (16). In brief, a single 5 or 7 dpf larva was placed in each well of a 96-well plate and treated with either VHC (embryo medium with 1% DMSO) or test compound (dissolved in embryo medium, final solvent concentration of 1% DMSO) in a 100 μL volume. Larvae were incubated in the dark for 2 h at 28° C., whereafter 100 μL of either VHC (embryo medium with 1% DMSO) or 600 μM EKP (dissolved in embryo medium, final solvent concentration of 1% DMSO, 300 μM working concentration) was added to each well. Next, within 5 min the 96-well plate was placed in an automated tracking device (ZebraBox Viewpoint, France) and larval behaviour was video recorded for 30 min. The complete procedure was performed in dark conditions using infrared light. Total locomotor activity was recorded by ZebraLab software (Viewpoint, France) and expressed in actinteg units, which is the sum of pixel changes detected during the defined time interval (5 min). Larval behaviour was depicted as mean actinteg units per 5 min during the 30 min recording period and over consecutive time intervals. Data are pooled from independent experiments and expressed as mean±SD.
In our search for novel antiseizure compounds with the potential to treat drug-resistant seizures, the zebrafish EKP seizure model was used for hit identification and as critical gate-keeper for further investigation in the pharmacoresistant mouse 6-Hz (44 mA) psychomotor seizure model. An automated behavioural analysis was done of 7-day-old zebrafish larvae using video tracking (ViewPoint, France).
The compounds were tested in 5-day-old zebrafish larvae at 2 and/or 10 μM, depending on their tolerability, after 2 h incubation time. […] Among the antiseizure hits were compounds from 10 out of 11 classes tested, namely, propynones, propynals, propynols, propenones, amides, quinolinones, naphthyridinones, thiopyranoxides, pyrazolopyridines and indazoles.

[2] = tested on: EKP-induced epileptiform discharges in zebrafish larvae; test: Zebrafish EKP seizure model, electrophysiology (non-invasive LFP recordings, PSD analysis); type: in vivo, zebrafish (Danio rerio); settings: 7 dpf larvae; for efficacy against EKP-induced epileptiform discharges 2 μM / efficacy against EKP-induced epileptiform discharges 10 μM: 22 h incubation, mean, normalized PSD 20-90 Hz; for effect on EKP-induced elevated PSD (in words): 22 h
Method: Non-invasive LFP recordings were measured from the midbrain (optic tectum) of 7 dpf zebrafish larvae pre-incubated with VHC only, EKP only, or compound and EKP. […] These steps occurred at 28° C., while further manipulation and electrophysiological recordings occurred at room temperature (±21° C.) and were performed as described before (16, 27). Each recording lasted 600 seconds.
A power spectral density (PSD) analysis of the recordings was performed using MatLab R2019 software (MATrix LABoratory, USA) as described in (26). The PSD estimate of each LFP recording was summed over each 10 Hz frequency band, ranging from 0 to 160 Hz. Next, the PSD estimates were normalized against the VHC control. Data are expressed as mean±SEM PSD per larva and per condition over the 20-90 Hz region. Outliers were identified via the ROUT test (Q=1%).
PSD analysis assumes that the epileptiform activity manifests as a high-power oscillation at certain frequencies (26). Thus, if epileptic activity occurs often during the recording an elevated PSD estimate should be found at the corresponding frequency band(s) (26).

[3] = tested on: male NMRI mice; test: Mouse 6-Hz (44 mA) psychomotor seizure model; type: in vivo; settings: for mean seizure duration / dose-response relationship (in words): 30 min before stimulation; for dose-response relationship (in words): i.p.
Method: The antiseizure activity of compounds was investigated in the mouse 6-Hz (44 mA) psychomotor seizure model as described before (27). […] Seizure behaviour was video recorded and seizure durations were determined by blinded video analysis by experienced researchers, familiar with the different seizure characteristics. Data are expressed as mean±SD.
The 6-Hz 44 mA model is an acute model of pharmacoresistant focal impaired awareness seizures, previously referred to as complex partial or psychomotor seizures that are induced by a low frequency, long duration corneal electrical stimulation (6 Hz, 0.2 ms rectangular pulse width, 3 s duration, 44 mA). Seizures are typically characterized by a clonic phase and stereotypical automatic behaviours like stun, forelimb clonus, Straub tail and vibrissae twitching.

CC(C)(C)c1ccc(C#CC(=O)c2cccnc2N)cc1 [Compound 1.22, 1-(2-aminopyridin-3-yl)-3-(4-(tert-butyl)phenyl)prop-2-yn-1-one]
activity against EKP-induced drug-resistant seizures (behavioural) [1]: active; also recorded: most effective
efficacy against EKP-induced epileptiform discharges 2 μM ([2]; 2 μM): 45%

O=C(C#Cc1cccc(Cl)c1)c1cccnc1Cl [Compound 1.20, 3-(3-chlorophenyl)-1-(2-chloropyridin-3-yl)prop-2-yn-1-one]
active in the behavioural assay [1]: active
tolerated in the behavioural assay [1]: tolerated

CCCCCCC#CC(=O)c1ccc(C(=O)OCC)cc1 [I.7, ethyl 4-(non-2-ynoyl)benzoate]
reduction in EKP-induced drug-resistant seizures (non-significant) [1]: approximately 20%

Cc1ccc(C#CC(=O)c2ccc([N+](=O)[O-])cc2)cc1 [I.2, 1-(4-nitrophenyl)-3-(p-tolyl)prop-2-yn-1-one]
activity against EKP-induced drug-resistant seizures (behavioural) [1]: active

Cc1ccncc1C(=O)C#Cc1ccc(C(C)(C)C)cc1 [I.11, 3-(4-(tert-butyl)phenyl)-1-(4-methylpyridin-3-yl)prop-2-yn-1-one]
activity against EKP-induced drug-resistant seizures (behavioural) [1]: active

CCCC(CCC)C(=O)[O-].[Na+] [valproate, sodium valproate, reference compound]
protection against the electrically induced seizures (in words) ([3]; 300 mg/kg i.p., positive control): completely protected

Nc1ncccc1C(=O)N1CCN(c2cccc(Cl)c2)CC1 [Compound 6.1, (2-aminopyridin-3-yl)(4-(3-chlorophenyl)piperazin-1-yl)methanone]
mean seizure duration ([3]; 30 mg/kg i.p.): 15.5 s
mean seizure duration ([3]; 100 mg/kg i.p.): 4.3 s
mean seizure duration ([3]; 300 mg/kg i.p.): 0.5 s
mean seizure duration ([3]; 600 mg/kg i.p.): 0.5 s
dose-response relationship (in words) [3]: displayed a dose-response relationship
efficacy against EKP-induced epileptiform discharges 2 μM ([2]; 2 μM): 61%
efficacy against EKP-induced epileptiform discharges 10 μM ([2]; 10 μM): 10%

CC(C)(C)c1ccc(-c2cc(=O)c3ccccc3[nH]2)cc1 [Compound 7.1, 2-(4-(tert-butyl)phenyl)quinolin-4(1H)-one]
antiseizure activity at the behavioural level (in words) [1]: significant antiseizure activity
activity against EKP-induced drug-resistant seizures (behavioural) [1]: active
effect on EKP-induced elevated PSD (in words) ([2]; 2 μM): significantly elevated the PSD
efficacy against EKP-induced epileptiform discharges 2 μM ([2]; 2 μM): −118%
effect on EKP-induced elevated PSD (in words) ([2]; 10 μM): significantly elevated the PSD
efficacy against EKP-induced epileptiform discharges 10 μM ([2]; 10 μM): −217%

CCCCCCC#CC(=O)c1cccnc1N [Compound 1.23, 1-(2-aminopyridin-3-yl)non-2-yn-1-one]
reduction in EKP-induced drug-resistant seizures (non-significant) [1]: approximately 20%
efficacy against EKP-induced epileptiform discharges 2 μM ([2]; 2 μM): 31%
efficacy against EKP-induced epileptiform discharges 10 μM ([2]; 10 μM): −25%

CC(C)(C)c1ccc(C#CC(=O)c2ccccc2N)cc1 [I.5, 1-(2-aminophenyl)-3-(4-(tert-butyl)phenyl)prop-2-yn-1-one]
activity against EKP-induced drug-resistant seizures (behavioural) [1]: active

CCCCCCC#CC(=O)c1ccccc1N [I.6, 1-(2-aminophenyl)non-2-yn-1-one]
reduction in EKP-induced drug-resistant seizures (non-significant) [1]: approximately 20%

O=C(C#Cc1cccc(Cl)c1)c1cccnc1N1CCOCC1 [Compound 1.21, 3-(3-chlorophenyl)-1-(2-morpholinopyridin-3-yl)prop-2-yn-1-one]
active in the behavioural assay [1]: active
tolerated in the behavioural assay [1]: tolerated

O=C(C#Cc1cccc(F)c1)c1ccccc1 [Compound 1.35, 3-(3-fluorophenyl)-1-phenylprop-2-yn-1-one]
active in the behavioural assay [1]: active
tolerated in the behavioural assay [1]: tolerated

CC(C)(C)c1ccc(C#CC(=O)c2ccc(N)cc2)cc1 [I.4, 1-(4-aminophenyl)-3-(4-(tert-butyl)phenyl)prop-2-yn-1-one]
activity against EKP-induced drug-resistant seizures (behavioural) [1]: active

CNc1ccccc1C(=O)C#Cc1ccc(C(C)(C)C)cc1 [I.14, 3-(4-(tert-butyl)phenyl)-1-(2-(methylamino)phenyl)prop-2-yn-1-one]
activity against EKP-induced drug-resistant seizures (behavioural) [1]: active

CC(C)(C)c1ccc(C#CC(=O)c2ccsc2)cc1 [I.8, 3-(4-(tert-butyl)phenyl)-1-(thiophen-3-yl)prop-2-yn-1-one]
activity against EKP-induced drug-resistant seizures (behavioural) [1]: active

COc1ccc(C(=O)C#Cc2ccc(C)cc2)cc1 [I.1, 1-(4-methoxyphenyl)-3-(p-tolyl)prop-2-yn-1-one]
activity against EKP-induced drug-resistant seizures (behavioural) [1]: active

CCCCCCC#CC(=O)c1ccsc1 [I.9, 1-(thiophen-3-yl)non-2-yn-1-one]
activity against EKP-induced drug-resistant seizures (behavioural) [1]: active

Nc1ncccc1C(=O)C#Cc1ccc(Cl)c(Cl)c1 [Compound 1.13, 1-(2-aminopyridin-3-yl)-3-(3,4-dichlorophenyl)prop-2-yn-1-one]
active in the behavioural assay [1]: active
tolerated in the behavioural assay [1]: tolerated

O=C(C#Cc1ccc(Cl)cc1)c1ccccc1 [Compound 1.31, 3-(4-chlorophenyl)-1-phenylprop-2-yn-1-one]
active in the behavioural assay [1]: active
tolerated in the behavioural assay [1]: tolerated

CC(C)(C)c1ccc(C#CCc2ccccc2)cc1 [Compound 4.1, 1-(tert-butyl)-4-(3-phenylprop-1-yn-1-yl)benzene]
reduction in EKP-induced seizure behaviour (non-significant) ([1]; 2 μM): approximately 23%
reduction in EKP-induced seizure behaviour (non-significant) ([1]; 10 μM): ~19%
antiseizure activity at the behavioural level (in words) [1]: did not show significant activity
efficacy against EKP-induced epileptiform discharges 2 μM ([2]; 2 μM): 38%

O=C(C#CC1CC1)c1ccsc1 [I.10, 3-cyclopropyl-1-(thiophen-3-yl)prop-2-yn-1-one]
activity against EKP-induced drug-resistant seizures (behavioural) [1]: active

CC(C)(C)c1ccc(C#CC(=O)c2ncccc2N)cc1 [Compound 1.24, 1-(3-aminopyridin-2-yl)-3-(4-(tert-butyl)phenyl)prop-2-yn-1-one]
efficacy against EKP-induced epileptiform discharges 2 μM ([2]; 2 μM): 45%
efficacy against EKP-induced epileptiform discharges 10 μM ([2]; 10 μM): 11%

Nc1ncccc1C(=O)C#Cc1cccc(C(F)(F)F)c1 [Compound 1.17, 1-(2-aminopyridin-3-yl)-3-(3-(trifluoromethyl)phenyl)prop-2-yn-1-one]
efficacy against EKP-induced epileptiform discharges 2 μM ([2]; 2 μM): 61%

COc1ccccc1C(O)C#Cc1ccc(C(C)(C)C)cc1 (racemic) [Compound 3.1, rac-3-(4-(tert-butyl)phenyl)-1-(2-methoxyphenyl)prop-2-yn-1-ol]
efficacy against EKP-induced epileptiform discharges 2 μM ([2]; 2 μM): 79%

CC(C)(C)c1ccc(-c2cc(=O)c3cccnc3[nH]2)cc1 [Compound 8.1, 2-(4-(tert-butyl)phenyl)-1,8-naphthyridin-4(1H)-one]
activity against EKP-induced drug-resistant seizures (behavioural) [1]: active
mean seizure duration ([3]; 30 mg/kg i.p.): 12.5 s
mean seizure duration ([3]; 100 mg/kg i.p.): 9.7 s
mean seizure duration ([3]; 300 mg/kg i.p.): 2.8 s
mean seizure duration ([3]; 600 mg/kg i.p.): 0 s
dose-response relationship (in words) [3]: displayed a dose-response relationship
efficacy against EKP-induced epileptiform discharges 2 μM ([2]; 2 μM): 57%
efficacy against EKP-induced epileptiform discharges 10 μM ([2]; 10 μM): −117%

COC(=O)c1ccc(C#CC(=O)c2cccnc2N)cc1 [Compound 1.8, methyl 4-(3-(2-aminopyridin-3-yl)-3-oxoprop-1-yn-1-yl)benzoate]
efficacy against EKP-induced epileptiform discharges 2 μM ([2]; 2 μM): 18%

O=c1cc(-c2ccccc2)[nH]c2ccccc12 [III.1, 2-phenylquinolin-4(1H)-one]
reduction in EKP-induced drug-resistant seizures (non-significant) [1]: approximately 20%

COc1ccccc1C(=O)C#Cc1ccc(C(C)(C)C)cc1 [Compound 1.18, 3-(4-(tert-butyl)phenyl)-1-(2-methoxyphenyl)prop-2-yn-1-one]
efficacy against EKP-induced epileptiform discharges 2 μM ([2]; 2 μM): 71%

CCSC(=CC(=O)c1ccccc1)c1ccc(C(C)(C)C)cc1 (mixture of isomers) [Compound 5.1, (E/Z)-3-(4-(tert-butyl)phenyl)-3-(ethylthio)-1-phenylprop-2-en-1-one]
efficacy against EKP-induced epileptiform discharges 2 μM ([2]; 2 μM): 36%
